US20150266850A1 (E.I.DU PONT DE NEMOURS AND COMPANY, priority 2012, published 2015)
Marks after values point to notes of the source that are not given here.

How the values were obtained:
Assay type in all cases: in vivo
Settings in all cases: 100 = 100% disease control
Septoria tritici = assay: Test C: wheat leaf blotch, preventive spray on wheat seedlings, visual disease rating
Summary of the method: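 Preventive run-off spray on seedlings at 200 ppm (equal to 800 g/ha), some at 40 or 50 ppm, in acetone/water 50/50 plus 250 ppm Trem® 014. Spore inoculation one day later; 24° C. saturated for 48 h, 20° C. chamber 19 days. Disease scored visually as % control relative to controls.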

Botrytis cinerea = assay: Test E: tomato botrytis, preventive spray on tomato seedlings, visual disease rating
Excerpt: General protocol for preparing test suspensions for Tests A-E: the test compounds were first dissolved in acetone in an amount equal to 11% of the final volume and then suspended at the desired concentration (in ppm) in acetone and purified water (50/50 mix by volume) containing 250 ppm of the surfactant Trem® 014 (polyhydric alcohol esters). The resulting test suspensions were then used in Tests A-E. Spraying a 200 ppm test suspension to the point of run-off on the test plants was the equivalent of a rate of 800 g/ha.
The test suspension was sprayed to the point of run-off on tomato seedlings. The following day the seedlings were inoculated with a spore suspension of Botrytis cinerea (the causal agent of tomato botrytis) and incubated in saturated atmosphere at 20° C. for 48 h, and then moved to a growth chamber at 27° C. for 3 additional days, after which time disease ratings were visually made.
Results for Tests A-E are given in Table A. In the Table, a rating of 100 indicates 100% disease control and a rating of 0 indicates no disease control (relative to the controls). A dash (-) indicates no test results. All results are for 200 ppm except where followed by an “*”, which indicates 40 ppm or “**”, which indicates 50 ppm.

[1] = system: Erysiphe graminis f. sp. tritici; assay: Test A: wheat powdery mildew, preventive spray on wheat seedlings, visual disease rating
Summary of the method: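 Preventive test: seedlings inoculated with Erysiphe spores one day after run-off spraying at 200 ppm (or 40/50 ppm) in acetone/water plus surfactant. Kept 8 days at 20° C; visual rating as % disease control versus untreated (100 = full control).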

[2] = system: Puccinia recondita f sp. tritici; assay: Test B: wheat leaf rust, preventive spray on wheat seedlings, visual disease rating
Summary of the method: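 Preventive spray to run-off on seedlings, one day before spore inoculation; 24 h in saturated atmosphere at 20° C, then 7 days in a 20° C growth chamber before visual rating (100 = full control, 0 = none, relative to controls). Standard rate 200 ppm, equal to 800 g/ha, some at 40 or 50 ppm; compounds in acetone/water with 250 ppm surfactant.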

Septoria nodorum = assay: Test D: wheat glume blotch, preventive spray on wheat seedlings, visual disease rating
Summary of the method: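 Disease control (0 = none, 100 = full, relative to controls) was scored visually on wheat seedlings 7 days after a 48 h saturated-humidity incubation at 20° C following Septoria nodorum inoculation. Inoculation came one day after a run-off spray at 200 ppm (some 40 or 50 ppm) in acetone/water plus surfactant.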

[3] = Zymoseptoria tritici, 504 h, 200 ppm
[4] = Botrytis cinerea, 120 h, 200 ppm
[5] = Blumeria graminis, 192 h, 200 ppm
[6] = Parastagonospora nodorum, 216 h, 200 ppm

SMILES	Test C disease control rating (Septoria tritici; 40 ppm (*))	Test E disease control rating (Botrytis cinerea; 40 ppm (*))	Test A disease control rating ([1]; 40 ppm (*))	Test B disease control rating ([2]; 40 ppm (*))	Test D disease control rating (Septoria nodorum; 40 ppm (*))	Test C disease control rating (Septoria tritici; 200 ppm) [%]	Test E disease control rating (Botrytis cinerea; 200 ppm) [%]	Test A disease control rating ([1]; 200 ppm) [%]	Test B disease control rating ([2]; 200 ppm) [%]	Test D disease control rating (Septoria nodorum; 200 ppm) [%]	further results
COC(=O)NCc1cc(-n2ccc(-c3ccc(Cl)cc3Br)n2)ccc1C [Cmpd 80]	58* %	81* %	97* %	100* %	100* %	–	–	–	–	–	–
COC(=O)NCc1cc(-n2ncc(-c3ccc(OC)cc3OC)[n+]2[O-])ccc1C [Compound 4]	–	–	–	–	–	–	–	–	–	–	pest or weed control at 200 ppm (Septoria tritici; [3]): 99%; pest or weed control at 200 ppm (Botrytis cinerea; [4]): 69%; pest or weed control at 200 ppm [1, 5]: 99%; pest or weed control at 200 ppm ([2]; 192 h, 200 ppm): 100%; pest or weed control at 200 ppm (Septoria nodorum; [6]): 100%
COC(=O)NCc1cc(-n2ccc(-c3ccc(C)nc3Cl)n2)ccc1C [Cmpd 43]	87* %	62* %	98* %	100* %	100* %	–	–	–	–	–	–
COC(=O)NCc1cc(-c2ccn(-c3ccc(OC)cc3OCC#N)n2)ccc1C [Cmpd 32]	–	–	–	–	–	100	66	94	100	100	–
COC(=O)NCc1cc(-n2ccc(-c3ccc(F)cc3F)n2)ccc1C [Cmpd 30]	–	–	–	–	–	100	0	100	100	100	–
COC(=O)NCc1cc(-n2ccc(-c3ccc(Cl)nc3OC)n2)ccc1C [Cmpd 45]	95* %	39* %	98* %	100* %	100* %	–	–	–	–	–	–
COC(=O)NCc1cc(-n2ccc(-c3ccc(OC)cc3O)n2)ccc1C [Cmpd 103]	–	–	–	–	–	74	0	48	100	100	–
COC(=O)NCc1cc(-c2ccn(-c3ccc(OC)cc3[N+](=O)[O-])n2)ccc1C [Cmpd 22]	–	–	–	–	–	100	85	0	100	100	–
C#CCOc1cc(OC)ccc1-c1ccn(-c2ccc(C)c(CNC(=O)OC)c2)n1 [Cmpd 51]	–	–	–	–	–	88	0	0	100	100	–
COC(=O)NCc1cc(-n2ccc(-c3ccc([N+](=O)[O-])cc3Cl)n2)ccc1C [Cmpd 110]	93* %	0* %	72* %	100* %	100* %	–	–	–	–	–	–
COC(=O)NCc1cc(-n2ccc(-c3ccc(Cl)cc3O)n2)ccc1C [Cmpd 71]	–	–	–	–	–	51	8	90	99	100	–
COC(=O)NCc1cc(-n2ccc(-c3ccc(OC)cc3OCC#N)n2)ccc1C [Cmpd 53]	–	–	–	–	–	97	0	100	100	100	–
COC(=O)NCc1cc(-n2ccc(-c3ccc(F)cc3Cl)n2)ccc1C [Cmpd 40]	100* %	80* %	100* %	100* %	100* %	–	–	–	–	–	–
COC(=O)NCc1cc(-n2ccc(-c3ccc(Br)cc3OC)n2)ccc1C [Cmpd 58]	96* %	26* %	100* %	100* %	100* %	–	–	–	–	–	–
COC(=O)NCc1cc(-n2ccc(-c3ccc(Cl)cc3C)n2)ccc1C [Cmpd 36]	100* %	74* %	100* %	100* %	100* %	–	–	–	–	–	–
COC(=O)NCc1cc(-n2ncc(-c3ccc(I)cc3OC)[n+]2[O-])ccc1C [Compound 81]	–	–	–	–	–	–	–	–	–	–	pest or weed control at 200 ppm (Septoria tritici; [3]): 98%; pest or weed control at 200 ppm (Botrytis cinerea; [4]): 67%; pest or weed control at 200 ppm [1, 5]: 99%; pest or weed control at 200 ppm ([2]; 192 h, 200 ppm): 100%; pest or weed control at 200 ppm (Septoria nodorum; [6]): 100%
COC(=O)NCc1cc(-n2ccc(-c3ccc(C)cc3C)n2)ccc1C [Compound 38, methyl N-[[5-[3-(2,4-dimethylphenyl)-1H-pyrazol-1-yl]-2-methylphenyl]-methyl]carbamate]	–	–	–	–	–	–	–	–	–	–	pest or weed control at 40 ppm (Septoria tritici; Zymoseptoria tritici, 504 h, 40 ppm (*)): 100%; pest or weed control at 40 ppm (Botrytis cinerea; Botrytis cinerea, 120 h, 40 ppm (*)): 98%; pest or weed control at 40 ppm ([1]; Blumeria graminis, 192 h, 40 ppm (*)): 100%; pest or weed control at 40 ppm ([2]; 192 h, 40 ppm (*)): 100%; pest or weed control at 40 ppm (Septoria nodorum; Parastagonospora nodorum, 216 h, 40 ppm (*)): 100%
COC(=O)NCc1cc(-n2ccc(-c3ccc(F)cc3Br)n2)ccc1C [Cmpd 57]	99* %	63* %	100* %	100* %	100* %	–	–	–	–	–	–
COC(=O)NCc1cc(-c2ccn(-c3ccc(Br)cc3Br)n2)ccc1C [Cmpd 62]	97* %	100* %	100* %	100* %	100* %	–	–	–	–	–	–
COC(=O)NCc1cc(-n2ncc(-c3ccc(Cl)cc3F)n2)ccc1C [Cmpd 50]	99* %	77* %	100* %	100* %	100* %	–	–	–	–	–	–
COC(=O)NCc1cc(-c2ccn(-c3ccc(Br)cc3C#N)n2)ccc1C [Cmpd 111]	–	–	–	–	–	93	0	94	100	100	–
COC(=O)NCc1cc(-c2ccn(-c3ccc(F)cc3Cl)n2)ccc1C [Cmpd 60]	91* %	99* %	100* %	100* %	100* %	–	–	–	–	–	–
